We go through 22 compounds from patent US9605005B2, “Alkynyl alcohols and methods of use” (Genentech, Inc., priority 2013, dated 2017).

Usually IC50 stands for the concentration that gives 50% inhibition. One may read the Ki as a dissociation constant, usually derived from enzyme kinetics or from competition with a known ligand.

Where two headings read alike, the source gives them in different places.

Test [1] relates to p52 (NF-kB2) nuclear translocation, HeLa cells. The experiment in a line: p52 (NF-kB2) nuclear translocation assay in HeLa cells (non-classical NF-kB signaling, anti-lymphotoxin beta receptor antibody stimulated). It counts as cell-based. The conditions noted are these: Homo sapiens, 100 ng/mL anti-lymphotoxin beta receptor antibody for 5 hours, read-out: p52 HeLa Transloc Assay (IC50). In outline: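 HeLa cells in 10% FBS medium were treated with compound (0.2% DMSO final) and stimulated with 100 ng/mL anti-lymphotoxin beta receptor antibody for 5 h. Fixed cells were immunostained for p52 and imaged with DRAQ5 nuclear stain. Translocation is the nuclear to cytoplasmic intensity ratio, and IC50 values are in micromolar.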

For test [2], the system named is REL-A (p65) nuclear translocation, HeLa cells. The experiment in a line: REL-A (p65) nuclear translocation assay in HeLa cells (classical NF-kB signaling, TNF-α stimulated). It is filed as cell-based. The following applies: Homo sapiens, 0.5 h. In outline: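 HeLa cells were exposed to test compounds at various concentrations (0.2% DMSO final) in medium with 10% fetal bovine serum for 4.5 hours, then stimulated for 30 minutes with 10 ng/mL TNF-α. After fixation in 4% paraformaldehyde, 0.1% Triton X-100 permeabilization and staining with 400 ng/mL anti-REL-A (p65) antibody, Alexa488 secondary and DRAQ5, Opera imaging gave nuclear-to-cytoplasmic signal ratios to calculate IC50.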

Test [3] addresses nuclear factor-kappa B (NF-kB)-inducing kinase (NIK) (Homo sapiens (Human), UniProt Q99558). As to the kind of experiment: NIK enzyme inhibition assay (Transcreener ADP, NIK ADP-FP). It is filed as biochemical. The conditions noted are these: purified NIK 0.5 nM, 10 μM ATP, fluorescence polarization; read-out: NIK ADP-FP (Ki μM).
[4] abbreviates: HeLa cells, 10 ng/mL TNF-α for 30 minutes, read-out: REL-A HeLa Transloc Assay (IC50).

Sequence of nuclear factor-kappa B (NF-kB)-inducing kinase (NIK) (Q99558 whole entry): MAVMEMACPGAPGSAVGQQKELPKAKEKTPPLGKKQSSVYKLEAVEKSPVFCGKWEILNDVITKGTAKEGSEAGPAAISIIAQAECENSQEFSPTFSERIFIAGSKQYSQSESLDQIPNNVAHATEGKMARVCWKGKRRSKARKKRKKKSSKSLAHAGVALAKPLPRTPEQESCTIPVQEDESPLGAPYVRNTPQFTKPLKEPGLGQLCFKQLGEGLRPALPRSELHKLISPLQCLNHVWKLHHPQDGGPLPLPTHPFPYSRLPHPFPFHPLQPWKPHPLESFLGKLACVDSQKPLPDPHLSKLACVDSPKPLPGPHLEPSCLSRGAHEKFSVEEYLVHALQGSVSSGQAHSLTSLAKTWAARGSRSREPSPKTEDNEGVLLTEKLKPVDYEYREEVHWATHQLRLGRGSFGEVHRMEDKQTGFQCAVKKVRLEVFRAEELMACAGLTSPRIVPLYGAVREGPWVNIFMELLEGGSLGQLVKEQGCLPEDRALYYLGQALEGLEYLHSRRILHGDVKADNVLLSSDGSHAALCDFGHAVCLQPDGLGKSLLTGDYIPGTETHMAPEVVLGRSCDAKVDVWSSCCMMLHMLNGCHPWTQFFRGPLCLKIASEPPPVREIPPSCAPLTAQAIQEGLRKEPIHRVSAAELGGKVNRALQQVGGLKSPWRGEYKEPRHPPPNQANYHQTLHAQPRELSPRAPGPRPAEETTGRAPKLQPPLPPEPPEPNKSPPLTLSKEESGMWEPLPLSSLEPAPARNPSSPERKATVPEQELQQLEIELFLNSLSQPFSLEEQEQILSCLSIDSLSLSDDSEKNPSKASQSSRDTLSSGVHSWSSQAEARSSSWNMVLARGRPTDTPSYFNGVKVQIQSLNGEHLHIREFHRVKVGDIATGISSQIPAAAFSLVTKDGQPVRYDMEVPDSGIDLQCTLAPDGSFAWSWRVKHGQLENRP

Consider `CN1CC[C@@](O)(C#Cc2cccc(-n3nc(C(N)=O)c4c3CCN(c3ncccn3)C4)c2)C1=O` [Compound 121, 1-[3-[2-[(3R)-3-hydroxy-1-methyl-2-oxo-pyrrolidin-3-yl]ethynyl]phenyl]-5-pyrimi-din-2-yl-6,7-dihydro-4H-pyra-zolo[4,3-c]pyridine-3-carbox-amide], for which the concentration for half-maximal inhibition (IC50) was found to be 203 nM in test [1] and 20 µM in test [2] (setting [4]). Also, the inhibition constant (Ki) in test [3] is 1.05 nM.
For `CN1CC[C@@](O)(C#Cc2ccnc(-n3nc(C(N)=O)c4ccc(F)cc43)c2)C1=O` [Compound 63, 6-fluoro-1-[4-[2-[(3R)-3-hy-droxy-1-methyl-2-oxo-pyrroli-din-3-yl]ethynyl]-2-pyri-dyl]indazole-3-carboxamide], in that order: 27 nM, 2 µM and 0.1 nM.
On the same counts, the results for `CN1CC[C@@](O)(C#Cc2cccc(-n3nc(C(N)=O)c4c3[C@H](O)CC4)c2)C1=O` [Compound 169, (6R)-6-hydroxy-1-[3-[2-[(3R)-3-hydroxy-1-methyl-2-oxo-pyrrolidin-3-yl]ethynyl]phenyl]-5,6-dihydro-4H-cyclo-penta[c]pyrazole-3-carbox-amide] are 1120 nM, 20 µM and 2.96 nM.
On the same counts, the results for `CN1CC[C@@](O)(C#Cc2cccc(-n3nc(C(N)=O)c4c3OCCC4)c2)C1=O` [Compound 12, 1-[3-[2-[(3R)-3-hydroxy-1-methyl-2-oxo-pyrrolidin-3-yl]ethynyl]phenyl]-5,6-dihydro-4H-pyrano[2,3-c]pyrazole-3-carboxamide] are 187 nM, 20 µM and 1.56 nM.
For the compound `CN1CC[C@@](O)(C#Cc2cc(-n3nc(C(N)=O)c4cccnc43)ccc2F)C1=O` [Compound 31, 1-[4-fluoro-3-[2-[(3R)-3-hy-droxy-1-methyl-2-oxo-pyrroli-din-3-yl]ethynyl]phenyl] pyrazolo[3,4-b]pyridine-3-carboxamide], the results for the IC50 in test [1] and in test [2] (setting [4]) were 67.1 nM and 20 µM, respectively. Besides, the Ki in test [3] turned out to be 0.62 nM.
Turning to `CN1CC[C@@](O)(C#Cc2cccc(-n3nc(C(N)=O)c4cc(CC#N)ccc43)c2)C1=O` [Compound 41, 5-(cyanomethyl)-1-[3-[2-[(3R)-3-hydroxy-1-methyl-2-oxo-pyrrolidin-3-yl]ethynyl]phenyl]indazole-3-carboxamide], the IC50 in test [1] is 52.5 nM; in test [2] (setting [4]), 20 µM. Moreover, the inhibition constant Ki in test [3] was found to be 0.32 nM.
Consider `CN1CC[C@@](O)(C#Cc2cccc(-c3nc(C(N)=O)c4cccnn34)c2)C1=O` [Compound 86, 7-[3-[2-[(3R)-3-hydroxy-1-methyl-2-oxo-pyrrolidin-3-yl]ethynyl]phenyl]imidazo[1,5-b]pyridazine-5-carboxamide], for which the IC50 in test [1] is 356 nM; in test [2] (setting [4]), 20 µM. The inhibition constant (Ki) in test [3] was 0.73 nM.
On the same counts, the results for `CN1CC[C@@](O)(C#Cc2ccc(F)c(-c3nc(C(N)=O)n4cc(Cl)ccc34)c2)C1=O` [Compound 186, 6-chloro-1-[2-fluoro-5-[2-[(3R)-3-hydroxy-1-methyl-2-oxo-pyrrolidin-3-yl]ethynyl]phenyl]imidazo[1,5-a] pyridine-3-carboxamide] are 36 nM, over 2 µM and 0.1 nM.
For `CN1CC[C@@](O)(C#Cc2cccc(-n3nc(C(N)=O)c4cc(-c5cnn(CCO)c5)ccc43)c2)C1=O` [Compound 113, 5-[1-(2-hydroxyethyl)pyrazol-4-yl]-1-[3-[2-[(3R)-3-hy-droxy-1-methyl-2-oxo-pyrroli-din-3-yl]ethynyl]phenyl] indazole-3-carboxamide], the 50% inhibitory concentration (IC50) in test [1] was 440 nM; in test [2] (setting [4]) it was 20 µM. Moreover, the inhibition constant Ki in test [3] amounted to 0.07 nM.
Turning to `CCCC(=O)N(C)Cc1ccc2c(c1)c(C(N)=O)nn2-c1cc(C#C[C@]2(O)CCN(C)C2=O)ccn1` [Compound 142, 5-[[butanoyl(methyl)amino]methyl]-1-[4-[2-[(3R)-3-hy-droxy-1-methyl-2-oxo-pyrroli-din-3-yl]ethynyl]-2-pyri-dyl]indazole-3-carboxamide], the concentration for half-maximal inhibition (IC50) in test [1] was 793 nM; in test [2] (setting [4]), 20 µM. For the same compound, the Ki in test [3] came out at 1.71 nM.
For `CN1CC[C@@](O)(C#Cc2cccc(-c3nc(C(N)=O)n4ccncc34)c2)C1=O` [Compound 92, 1-[3-[2-[(3R)-3-hydroxy-1-methyl-2-oxo-pyrrolidin-3-yl]ethynyl]phenyl]imidazo[1,5-a]pyrazine-3-carboxamide], in that order: 25.9 nM, 20 µM and 0.37 nM.
`COc1cc2c(C(N)=O)nn(-c3cccc(C#C[C@]4(O)CCN(C)C4=O)c3)c2nn1` [Compound 173, 1-[3-[2-[(3R)-3-hydroxy-1-methyl-2-oxo-pyrrolidin-3-yl]ethynyl]phenyl]-5-methoxy-pyrazolo[3,4-c]pyridazine-3-carboxamide]: the IC50 in test [1] is 176 nM; in test [2] (setting [4]), 2 µM. The inhibitory constant (Ki) in test [3] worked out at 0.55 nM.
For `CN1CC[C@@](O)(C#Cc2cccc(-n3nc(C(N)=O)c4cnc(C(F)(F)F)nc43)c2)C1=O` [Compound 159, 1-[3-[2-[(3R)-3-hydroxy-1-methyl-2-oxo-pyrrolidin-3-yl]ethynyl]phenyl]-6-(trifluoro-methyl)pyrazolo[3,4-d] pyrimidine-3-carboxamide], in that order: 2000 nM, 2 µM and 7.13 nM.
For `CN1CC[C@@](O)(C#Cc2cccc(-n3nc(C(N)=O)c4cc(OCCN5CCOCC5)ccc43)c2)C1=O` [Compound 162, 1-[3-[2-[(3R)-3-hydroxy-1-methyl-2-oxo-pyrrolidin-3-yl]ethynyl]phenyl]-5-(2-morpho-linoethoxy)indazole-3-carboxamide], the half-inhibitory concentration (IC50) was 237 nM in test [1] and 2 µM in test [2] (setting [4]). For the same compound, in test [3], the inhibition constant Ki came out at 0.35 nM.
As to `CN1CC[C@@](O)(C#Cc2cccc(-n3nc(C(N)=O)c4c(NC5CC5)nccc43)c2)C1=O` [Compound 130, 4-(cyclopropylamino)-1-[3-[2-[(3R)-3-hydroxy-1-meth-yl-2-oxo-pyrrolidin-3-yl]eth-ynyl]phenyl]pyrazolo[4,3-c]pyridine-3-carboxamide], the IC50 in test [1] worked out at 53.1 nM; in test [2] (setting [4]), 2 µM. For the same compound, the Ki in test [3] turned out to be 0.11 nM.
On the same counts, the results for `CN1CCC[C@@](O)(C#Cc2cccc(-n3nc(C(N)=O)c4ccc(F)cc43)c2)C1=O` [Compound 27, 6-fluoro-1-[3-[2-[(3R)-3-hy-droxy-1-methyl-2-oxo-3-pipe-ridyl]ethynyl]phenyl]inda-zole-3-carboxamide] are 322 nM, 20 µM and 3.75 nM.
`CN1CC[C@@](O)(C#Cc2cccc(-n3nc(C(N)=O)c4cc(-c5ccn(C)n5)ccc43)c2)C1=O` [Compound 101, 1-[3-[2-[(3R)-3-hydroxy-1-methyl-2-oxo-pyrrolidin-3-yl]ethynyl]phenyl]-5-(1-meth-ylpyrazol-3-yl)indazole-3-carboxamide]: the IC50 worked out at 31.2 nM in test [1] and 6.32 µM in test [2] (setting [4]). For the same compound, in test [3], the inhibition constant Ki was found to be 0.06 nM.
Take `CN1CC[C@@](O)(C#Cc2cccc(-c3ccn4c(C(N)=O)nc(-c5cccc(C#C[C@]6(O)CCN(C)C6=O)c5)c4c3)c2)C1=O` [Compound 95, 1,7-bis[3-[2-[(3R)-3-hydroxy-1-methyl-2-oxo-pyrrolidin-3-yl]ethynyl]phenyl]imi-dazo[1,5-a]pyridine-3-carbox-amide]: the IC50 in test [1] is 86.4 nM; in test [2] (HeLa, read-out: REL-A HeLa Transloc Assay (IC50) [μM]), 2 µM. The inhibitory constant (Ki) in test [3] was found to be 0.05 nM.
As for `Cc1nnc([C@](C)(O)C#Cc2cccc(-n3nc(C(N)=O)c4ccccc43)c2)o1` [Compound 26, 1-[3-[(3R)-3-hydroxy-3-(5-methyl-1,3,4-oxadiazol-2-yl)but-1-ynyl]phenyl]indazole-3-carboxamide], the 50% inhibitory concentration (IC50) in test [1] stood at 1130 nM; in test [2] (setting [4]), 20 µM. Besides, the Ki in test [3] turned out to be 2.52 nM.
On the same counts, the results for `CN1CC[C@@](O)(C#Cc2cc(F)cc(-n3nc(C(N)=O)c4cccnc43)c2)C1=O` [Compound 18, 1-[3-fluoro-5-[2-[(3R)-3-hy-droxy-1-methyl-2-oxo-pyrroli-din-3-yl]ethynyl]phenyl] pyrazolo[3,4-b]pyridine-3-carboxamide] are 138 nM, 20 µM and 0.86 nM.
On the same counts, the results for `CCNc1nccc2c1c(C(N)=O)nn2-c1cccc(C#C[C@]2(O)CCN(C)C2=O)c1` [Compound 129, 4-(ethylamino)-1-[3-[2-[(3R)-3-hydroxy-1-methyl-2-oxo-pyrrolidin-3-yl]ethynyl]phenyl]pyrazolo[4,3-c]pyri-dine-3-carboxamide] are 8.12 nM, 4.47 µM and 0.05 nM.
For `C[C@H]1CCc2c1c(C(N)=O)nn2-c1cccc(C#C[C@]2(O)CCN(C)C2=O)c1` [Compound 110, (4S)-1-[3-[2-[(3R)-3-hydroxy-1-methyl-2-oxo-pyrrolidin-3-yl]ethynyl]phenyl]-4-methyl-5,6-dihydro-4H-cyclo-penta[c]pyrazole-3-carbox-amide], in that order: 244 nM, 20 µM and 0.55 nM.
